{
  "source": "patent US20230381176A1",
  "about": "“A PHARMACEUTICAL COMPOSITION AND USE THEREOF FOR TREATMENT OF CANCER” (Ascentage Pharma (Suzhou) Co., Ltd., priority 2020, published 2023)",
  "key": {"NCI-H2228 tumor cells": {"test_system": "NCI-H2228 tumor cells", "test": "Cell viability WST (CCK-8) assay, combination of Compound 5 and Compound 34", "type": "cell-based", "details": "Homo sapiens, 72 hours, single agent, read-out: Compound A IC50", "method": "Cell plating: Anti-proliferative effects were detected by a CCK-8 (Cell Counting Kit-8, Shanghai life iLab, China) assay based on water soluble tetrazolium salt (WST). The cells were seeded in 96-well plates, and only 95 μL of complete medium was added to each negative control group. 95 μL of complete medium cell suspension was added to each well to be tested, and the cell density was (5-10)×10^4/hole. Dosing (protection from light): […] After 72 hours of action by using 6 different concentrations of Compound 34 with 3 fixed doses of Compound 5, the combination effect of Compound 5 an Compound 34 was tested. Reading: […] The plates were continuously incubated at 37 ° C. for 2-4 hours in a CO2 incubator. The OD values were measured using a microplate reader (SpectraMax Plus 384, Molecular Devices, LLC., US) under A450 nm. […] (O.D. of test well−O.D. of blank control well)/(O.D. of cell control well−O.D. of blank control well)×100%. IC50 values were calculated using Graphpad Prism 6.0 software for nonlinear regression data analysis method."}, "A549 NSCLC xenograft [1]": {"test_system": "A549 NSCLC xenograft", "test": "s.c. A549 NSCLC xenograft tumor model, Compound 5 and trametinib/selumetinib", "type": "in vivo, mouse", "method": "(§1) A subcutaneous xenograft tumor model of human tumor immunodeficient mice was established by cell inoculation: tumor cells in logarithmic growth phase were collected, counted, resuspended in 1×PBS, and the cell suspension concentration was adjusted to 2.5-5 ×10^7/mL. The tumor cells were inoculated subcutaneously in the right side of immunodeficient mice with a 1 mL syringe ([…]), 5-10×10^6/0.2 mL/mouse. All animal experiments were strictly in accordance with the specifications for the use and management of experimental animals in GenePharma Co., Ltd. and Suzhou Ascentage Pharma Co., Ltd. The calculation of relevant parameters refers to the Chinese NMPA “Guidelines for Non-Clinical Research Techniques of Cytotoxic Anti-tumor Drugs”.\n(§2) Animal body weight and tumor size were measured twice weekly during the experiment. The state of the animal and the presence or absence of death were observed every day. The growth of tumor and the effects of treatment on normal behavior of animals were monitored routinely, specifically involving experimental animal activity, feeding and drinking, weight gain or loss, eyes, clothing hair and other abnormalities. The deaths and clinical symptoms observed during the experiment were recorded in the raw data. All operations for administration and measurement of mouse body weight and tumor volume were performed in a clean bench. According to the requirements of the experimental protocol, after the end of the last administration, plasma and tumor tissues were collected, weighed and photographed. The plasma and tumor samples were frozen at −80° C. for ready-to-use.\n(§3) Tumor volume (TV) is calculated as: TV=a×b^2/2, wherein a and b represent the length and width of the tumor to be measured, respectively.\n(§4) The relative tumor volume (RTV) is calculated as: RTV=Vt/V1, wherein V1 is the tumor volume at the start of grouping and administration, and Vt is the tumor volume measured on the t day after administration.\n(§5) The evaluation index of anti-tumor activity is the relative tumor proliferation rate T/C (%), and the calculation formula thereof is: relative tumor proliferation rate T/C (%)=(TRTV/CRTV)×100%, TRTV is the RTV of treatment group, CRTV is the RTV of solvent control group.\n(§6) Change of body weight (%)=(measured body weight−body weight at the start of grouping)/body weight at the start of grouping×100%.\n(§7) A dose of drug is considered to be severely toxic if the body weight of mouse is reduced by more than 20% or the number of drug-related deaths exceeds 20%.\n(§8) According to the description by Clarke R., Issues in experimental design and endpoint analysis in the study of experimental cytotoxic agents in vivo in breast cancer and other models [J]. Breast Cancer Research & Treatment, 1997, 46(2-3): 255-278, synergy analysis was evaluated using the following formula: synergy factor=((A/C)×(B/C))/(AB/C); A=RTV value of drug A alone group; B=RTV value of drug B alone group; C=RTV value of the solvent control group, and AB=RTV value of the A and B combination group.\n(§9) Use of mRECIST (Gao et al., 2015) measured tumor responses included stable disease (SD), partial tumor regression (PR), and complete regression (CR), determined by comparing tumor volume change at day t to its baseline: tumor volume change (%)=(Vt−V1)/V1. The BestResponse was the minimum value of tumor volume change (%) for t≥10. For each time t, the average of tumor volume changes from t=1 to t was also calculated. BestAvgResponse was defined as the minimum value of this average for t≥10. The criteria for response (mRECIST) were adapted from RECIST criteria (Gao et al., 2015; Therasse et al., 2000) and defined as follows: mCR, BestResponse<−95% and BestAvg Response<−40%; mPR, BestResponse<−50% and BestAvgResponse<−20%; mSD, BestResponse<35% and BestAvgResponse<30%; mPD, not otherwise categorized. SD, PR, and CR were considered responders and used to calculate response rate (%). […] Body weight of animals were monitored simultaneously. […]"}, "[2]": {"test_system": "PTK2 high NSCLC PDX LU-01-0604", "test": "s.c. PTK2 high NSCLC PDX model LU-01-0604, Compound 5 and carboplatin", "type": "in vivo, mouse", "method": "as §1, §2, §3, §4, §5, §6, §7, §8, §9"}, "A549 NSCLC xenograft [3]": {"test_system": "A549 NSCLC xenograft", "test": "s.c. A549 NSCLC lung cancer model, Compound 5 and panobinostat", "type": "in vivo, mouse"}, "[4]": {"test_system": "colon CT26 syngeneic tumor", "test": "s.c. syngeneic tumor model of colon CT26, Compound 5 and anti-PD-1 antibody", "type": "in vivo", "details": "for RTV on Day 12 after administration (mean ± standard error) / T/C on Day 12 after administration (%): alone or with anti-PD-1 10 mg/kg i.p. twice weekly"}, "[5]": {"test_system": "PTK2-high liver PDX LI-03-1140", "test": "PTK2-high liver PDX model LI-03-1140, Compound 5 and Lenvatinib", "type": "in vivo, mouse", "method": "as §1, §2, §3, §4, §5, §6, §7, §8, §9"}, "[6]": {"details": "Compound 5 100 mg/kg, trametinib 0.5 mg/kg, selumetinib 50 mg/kg, orally once per day"}, "[7]": {"details": "best response, animals per class"}, "[8]": {"details": "Compound 5 50 mg/kg orally once per day, carboplatin 30 mg/kg i.p. once per week, 29 days"}, "[9]": {"details": "Compound 5 100 mg/kg orally once per day, panobinostat 3 mg/kg i.p. 5 days then 2 days break, 14 days"}, "[10]": {"details": "Compound 5 30 mg/kg orally once per day"}, "[11]": {"details": "Compound 5 100 mg/kg orally once per day"}, "[12]": {"details": "Compound 5 50 mg/kg, Lenvatinib 20 mg/kg, orally once per day, 28 days"}},
  "note": "pIC50: −log10 of the molar value.",
  "data": [
    {"smiles": "Cc1cc(Nc2ncc(Cl)c(Nc3ccccc3S(=O)(=O)C(C)C)n2)c(OC(C)C)cc1C1=CCN(C2CCOCC2)CC1", "note": "[Compound 5, 5-chloro-N^2-(2-isopropoxy-5-methyl-4-(1-(tetrahydro-2H-pyran-4-yl)-1,2,3,6-tetrahydropyridin-4-yl)phenyl)-N^4-(2-(isopropylsulfonyl)phenyl)pyrimidine-2,4-diamine]", "values": [
      {"measurement": "pIC50", "setting": "NCI-H2228 tumor cells", "value": 6.04},
      {"measurement": "RTV on Day 19 after administration (mean ± standard error)", "setting": "A549 NSCLC xenograft [1]; [6]", "value": "2.7 ± 0.2"},
      {"measurement": "T/C on Day 19 after administration (%)", "setting": "A549 NSCLC xenograft [1]; [6]", "value": 72.2, "unit": "%"},
      {"measurement": "mRECIST on Day 19 after administration", "setting": "A549 NSCLC xenograft [1]; Day 19, animals per class", "value": "5/5 PD"},
      {"measurement": "mRECIST", "setting": "A549 NSCLC xenograft [1]; [7]", "value": "1/5 SD, 4/5 PD"},
      {"measurement": "antitumor activity (conclusion in words)", "setting": "A549 NSCLC xenograft [1]; mouse, in vivo", "value": "minor antitumor activity"},
      {"measurement": "RTV on Day 29 after administration (mean ± standard error)", "setting": "[2]; [8]", "value": "8.25 ± 1.03"},
      {"measurement": "T/C on Day 29 after administration (%)", "setting": "[2]; [8]", "value": 94.50, "unit": "%"},
      {"measurement": "mRECIST", "setting": "[2]; animals per class", "value": "2/2 PD"},
      {"measurement": "antitumor activity (conclusion in words)", "setting": "[2]; mouse, in vivo", "value": "no antitumor activity"},
      {"measurement": "RTV on Day 14 after administration (mean ± standard error)", "setting": "A549 NSCLC xenograft [3]; [9]", "value": "3.21 ± 0.46"},
      {"measurement": "T/C on Day 14 after administration (%)", "setting": "A549 NSCLC xenograft [3]; [9]", "value": 89.54, "unit": "%"},
      {"measurement": "antitumor activity (conclusion in words)", "setting": "A549 NSCLC xenograft [3]; mouse, in vivo", "value": "minor antitumor activity"},
      {"measurement": "RTV on Day 12 after administration (mean ± standard error)", "setting": "[4]; [10]", "value": "29.9 ± 4.2"},
      {"measurement": "T/C on Day 12 after administration (%)", "setting": "[4]; [10]", "value": 102.75, "unit": "%"},
      {"measurement": "RTV on Day 12 after administration (mean ± standard error)", "setting": "[4]; [11]", "value": "22.5 ± 2.2"},
      {"measurement": "T/C on Day 12 after administration (%)", "setting": "[4]; [11]", "value": 77.32, "unit": "%"},
      {"measurement": "antitumor activity (conclusion in words)", "setting": "[4]; mouse, in vivo", "value": "no antitumor activity"},
      {"measurement": "RTV on Day 28 after administration (mean ± standard error)", "setting": "[5]; [12]", "value": "5.00 ± 0.17"},
      {"measurement": "T/C on Day 28 after administration (%)", "setting": "[5]; [12]", "value": 92.08, "unit": "%"},
      {"measurement": "mRECIST on Day 28 after administration", "setting": "[5]; Day 28, animals per class", "value": "2/2 PD"},
      {"measurement": "mRECIST", "setting": "[5]; [7]", "value": "2/2 PD"},
      {"measurement": "antitumor activity (conclusion in words)", "setting": "[5]; mouse, in vivo", "value": "no antitumor activity"}
    ]}
  ]
}
